For one assay, the system named is any bacteria. Description: Wet experiment result (antimicrobial activity of the synthesised peptides, positive/negative). The assay is classed as cell-based. The settings on record: experiment data set (Supplement S12). An excerpt:
Supplement MBT2-18-e70121-s002.doc, table 9 | column: Wet Exp. Result

Assay [1] concerns Pseudomonas aeruginosa (P. aeruginosa, ATCC27853). In kind it is cell-based. The protocol: (§1) Escherichia coli ( E. coli , ATCC25922), Klebsiella pneumoniae ( K. pneumoniae , ATCC10031), Staphylococcus aureus ( S. aureus , ATCC6538P), Pseudomonas aeruginosa ( P. aeruginosa , ATCC27853) and methicillin‐resistant Staphylococcus aureus (MRSA) were used to evaluate the antimicrobial activity of the peptides and were purchased from BeNa Culture Collection.
(§2) The MICs of the peptides in vitro were determined using the broth microdilution method with minor modifications (Wiegand et al. [2008]). Peptides were incubated with bacteria (about 5 × 10^5 CFU/mL), and PBS was used as the negative control. After 18–24 h of incubation at 37°C, the bacteria were checked for growth by recording the values at OD600, with three replicates in each group.

The subject of assay [2] is Staphylococcus aureus (S. aureus, ATCC6538P). The assay is classed as cell-based. The settings on record: for MIC S. aureus: ATCC6538. How it is done:
as §1, §2

For assay [3], the system named is Klebsiella pneumoniae (K. pneumoniae, ATCC10031). In kind it is cell-based. The settings on record: for MIC K. pneumoniae: ATCC10031. How it is done: as §1, §2
Assay [4] has as its system Escherichia coli (E. coli, ATCC25922). The assay is classed as cell-based. The protocol:
as §1, §2

The test system of assay [5] is methicillin‐resistant Staphylococcus aureus (MRSA). In kind it is cell-based. The settings on record: for MIC MRSA: methicillin‐resistant. The protocol:
as §1, §2

Assay [6] deals with gram‐positive and gram‐negative bacteria. The settings on record: external independent data set; ref Hu et al. ([2022]); cited from earlier work. An excerpt:
TABLE 3 Prediction results of external independent data set using 10 models. | column: Result ^a

The mark [7] stands for this setting: stapled peptide compared to its linear peptide.

In brackets after ≈: the same amount, converted by molar mass. *1 amine or outer side, *2 acyl side, *3 side chain or, on linkers, in order; H or OH if unused. Where a SMILES comes first, the peptide text is derived from it. Bridges are numbered along the chain shown (N, C = ends). Where no end group is shown, it is not given here. [ ]: non-standard residue; d: D form. X1 = O=C([C@H](CCCCNCC=[*:3])N[*:1])[*:2] Some results are limits rather than exact numbers.

The source of these data is article PMC11881016, “Deep‐Learning‐Based Approaches for Rational Design of Stapled Peptides With High Antimicrobial Activity and Stability” (Microbial Biotechnology, 2025).

In the case of `CC[C@H](C)[C@H](NC(=O)[C@@H](N)CCCNC(=N)N)C(=O)N[C@@H](CC(C)C)C(=O)N[C@@H](CCCNC(=N)N)C(=O)N[C@@H](CCCCN)C(=O)N[C@@H](CC(C)C)C(=O)N[C@@H](CCCNC(=N)N)C(=O)N[C@H]1CCCCNC/C=C/CNCCCC[C@@H](C(=O)O)NC(=O)[C@H](CC(C)C)NC(=O)[C@H](Cc2ccccc2)NC(=O)[C@H](CCCCN)NC1=O` [GAN‐P2‐2‐St] (H-RILRKLR[X1]KFL[X1]-OH; staple (E) 8-12), the “Wet Exp. Result” value with any bacteria is listed as “Positive”. Further, the “MIC P. aeruginosa” value in assay [1] was 32 µg/mL (≈ 19.4 µM). For the same compound, the “MIC S. aureus” value in assay [2] worked out at 2 µg/mL (≈ 1.21 µM). Further, in assay [2] (setting [7]), the “increase of antimicrobial activity against S. aureus” value is given as 4 fold. Further, in assay [3], the “MIC K. pneumoniae” value is 1 µg/mL (≈ 0.606 µM). In addition, the “increase of antimicrobial activity against K. pneumoniae” value in assay [3] (setting [7]) is given as 2–4 fold. Moreover, in assay [4], the “MIC E. coli” value came to 16 µg/mL (≈ 9.69 µM). For the same compound, the “MIC MRSA” value in assay [5] is 8 µg/mL (≈ 4.85 µM). The “increase of antibacterial activity against MRSA” value in assay [5] (setting [7]) turned out to be 16 fold.
On to `CC[C@H](C)[C@H](NC(=O)CN)C(=O)NCC(=O)N[C@@H](CCCCN)C(=O)N[C@@H](Cc1ccccc1)C(=O)N[C@@H](CC(C)C)C(=O)N[C@@H](Cc1c[nH]cn1)C(=O)N[C@@H](CO)C(=O)N[C@@H](C)C(=O)N[C@@H](CCCCN)C(=O)N[C@@H](CCCCN)C(=O)N[C@@H](Cc1ccccc1)C(=O)NCC(=O)N[C@@H](CCCCN)C(=O)N[C@H]1CSSC[C@@H](C(=O)N[C@H](C(=O)N[C@@H](CC(C)C)C(=O)N[C@@H](CC(N)=O)C(=O)N[C@@H](CO)C(=O)O)[C@@H](C)CC)NC(=O)CNC(=O)[C@H](C(C)C)NC(=O)[C@H](Cc2ccccc2)NC1=O` [Mag2(i + 4)14Dc] (H-GIGKFLHSAKKFGKCFVGCILNS-OH; disulfide 15-19), for which, in assay [1], the “MIC P. aeruginosa” value is 64 µg/mL. Moreover, the “MIC S. aureus” value in assay [2] amounted to 16 µg/mL. Further, the “MIC K. pneumoniae” value in assay [3] was found to be 32 µg/mL. Moreover, the “MIC E. coli” value in assay [4] worked out at 64 µg/mL.
`CC[C@H](C)[C@H](NC(=O)CN)C(=O)NCC(=O)N[C@@H](CCCCN)C(=O)N[C@@H](Cc1ccccc1)C(=O)N[C@@H](CC(C)C)C(=O)N[C@@H](Cc1c[nH]cn1)C(=O)N[C@@H](CO)C(=O)N[C@@H](C)C(=O)N[C@@H](CCCCN)C(=O)N[C@@H](CCCCN)C(=O)N[C@@H](Cc1ccccc1)C(=O)NCC(=O)N[C@@H](CCCCN)C(=O)N[C@@H](C)C(=O)N[C@H]1CSSC[C@@H](C(=O)N[C@@H](CC(C)C)C(=O)N[C@@H](CC(N)=O)C(=O)N[C@@H](CO)C(=O)O)NC(=O)[C@H](CCC(=O)O)NC(=O)CNC(=O)[C@H](C(C)C)NC1=O` [Mag2(i + 4)15Dc] (H-GIGKFLHSAKKFGKACVGECLNS-OH; disulfide 16-20): in assay [1], the “MIC P. aeruginosa” value was more than 512 µg/mL. The “MIC S. aureus” value in assay [2] was more than 512 µg/mL. Besides, the “MIC K. pneumoniae” value in assay [3] stood at 256 µg/mL. Moreover, in assay [4], the “MIC E. coli” value was determined as 512 µg/mL.
For “FFGKVLⓀLIRⓀIF‐NH2 (sidechain bridge or staple) [LS‐DAS, lysine‐stapled AMP of the external independent data set from Hu et al. ([2022])]”, the “Result (stapled AMP with high antimicrobial activity in the experiment)” value in assay [6] was “Positive”.
For “FFGSVLⓀLIPⓀIL‐NH2 (sidechain bridge or staple) [LS‐PTa, lysine‐stapled AMP of the external independent data set from Hu et al. ([2022])]”, in assay [6], the “Result (stapled AMP with high antimicrobial activity in the experiment)” value was “Positive”.
“GFKDLLKGAAⓀALVⓀTVLF‐NH2 (sidechain bridge or staple) [LS‐AP1, lysine‐stapled AMP of the external independent data set from Hu et al. ([2022])]”: the “Result (stapled AMP with high antimicrobial activity in the experiment)” value in assay [6] was “Positive”.
On to “GFKDLLⓀGAAⓀALVKTVLF‐NH2 (sidechain bridge or staple) [LS‐AP2, lysine‐stapled AMP of the external independent data set from Hu et al. ([2022])]”, for which the “Result (stapled AMP with high antimicrobial activity in the experiment)” value in assay [6] is “Positive”.
As for “GFⓀDLLⓀGAAKALVKTVLF‐NH2 (sidechain bridge or staple) [LS‐AP3, lysine‐stapled AMP of the external independent data set from Hu et al. ([2022])]”, the “Result (stapled AMP with high antimicrobial activity in the experiment)” value in assay [6] was “Positive”.
For “PKINLⓀILGⓀILRLAAAFK‐NH2 (sidechain bridge or staple) [LS‐PaD1, lysine‐stapled AMP of the external independent data set from Hu et al. ([2022])]”, the “Result (stapled AMP with high antimicrobial activity in the experiment)” value in assay [6] is listed as “Positive”.
Turning to “PⓀINLⓀILGKILRLAAAFK‐NH2 (sidechain bridge or staple) [LS‐PaD2, lysine‐stapled AMP of the external independent data set from Hu et al. ([2022])]”, in assay [6], the “Result (stapled AMP with high antimicrobial activity in the experiment)” value is “Positive”.
With RILRKLKKRFLK [GAN‐P2‐3], the “MIC P. aeruginosa” value in assay [1] is 32 µg/mL. Also, the “MIC S. aureus” value in assay [2] came to 8 µg/mL. The “MIC K. pneumoniae” value in assay [3] turned out to be 4 µg/mL. Besides, in assay [4], the “MIC E. coli” value came out at 16 µg/mL. In assay [5], the “MIC MRSA” value was 128 µg/mL.
The corresponding values for RILRKLRKKFLK [GAN‐P2‐2] are 16 µg/mL, 8 µg/mL, 4 µg/mL, 8 µg/mL and 128 µg/mL.
On to RILRKLRKRFLK [GAN‐P2‐4], for which, in assay [1], the “MIC P. aeruginosa” value turned out to be 32 µg/mL. For the same compound, the “MIC S. aureus” value in assay [2] worked out at 8 µg/mL. In assay [3], the “MIC K. pneumoniae” value worked out at 4 µg/mL. Besides, the “MIC E. coli” value in assay [4] was found to be 8 µg/mL. In addition, the “MIC MRSA” value in assay [5] was found to be 64 µg/mL.
Consider “VKRFKⓀFFRⓀFKKFV‐NH2 (sidechain bridge or staple) [LS‐BF1, lysine‐stapled AMP of the external independent data set from Hu et al. ([2022])]”, for which, in assay [6], the “Result (stapled AMP with high antimicrobial activity in the experiment)” value is given as “Positive”.
Take “VⓀRFKⓀFFRKFKKFV‐NH2 (sidechain bridge or staple) [LS‐BF2, lysine‐stapled AMP of the external independent data set from Hu et al. ([2022])]”: in assay [6], the “Result (stapled AMP with high antimicrobial activity in the experiment)” value is recorded as “Positive”.
In the case of WKRIAKRLKKKLGRAKLF [VAE‐P3‐3], the “MIC P. aeruginosa” value in assay [1] was found to be 16 µg/mL. Further, in assay [2], the “MIC S. aureus” value was found to be 4 µg/mL. Further, the “MIC K. pneumoniae” value in assay [3] came out at 2 µg/mL. Moreover, the “MIC E. coli” value in assay [4] stood at 16 µg/mL. Also, the “MIC MRSA” value in assay [5] was 16 µg/mL.
As for WKRIARKLKRKLGRAKLF [VAE‐P3‐5], the “MIC P. aeruginosa” value in assay [1] turned out to be 4 µg/mL. Moreover, the “MIC S. aureus” value in assay [2] stood at 2 µg/mL. Besides, the “MIC K. pneumoniae” value in assay [3] came out at 1 µg/mL. Further, in assay [4], the “MIC E. coli” value was determined as 16 µg/mL. The “MIC MRSA” value in assay [5] is 8 µg/mL.
